Patent publication US7858657B2 (Proix Pharmaceutical Corp., priority 2004, dated 2010)
Read-outs that look alike come from different tables or passages of the source. Marks after values point to notes of the source that are not given here.

How the values were obtained:
[1] = test system: HT-29 colon cancer; assay: Antitumor activity of PX-866 with gefitinib in HT-29 colon cancer; assay type: in vivo; settings: PX-866 2 mg/kg orally 4 hours prior to gefitinib 75 mg/kg po (FIG. 13)
[2] = test system: A-673 thabdomyosarcom xenografts; assay: Antitumor effect of PX-866 with bevacizumab, A-673 xenografts; assay type: in vivo; settings: PX-866 intravenously or orally every three days in combination with bevacizumab (FIG. 14)
Procedure: PX-866 was administered at varying doses intravenously or orally every three days alone or in combination with bevacizumab.

[3] = test system: phospho-Akt in A-549 cells; assay: cells; assay type: cell-based; settings: Homo sapiens, A549; A-549 cells in media containing 10% fbs; read-out: IC50, inhibition of phospho-Akt
Procedure: (§1) Cells. […] All cell lines were tested to be mycoplasma free using a PCR ELISA kit (Roche Diagnostics Inc., Indianapolis, Ind.).
(§2) Measurement of PtdIns-3-kinase.

[4] = target: T1, p110α/p85α (Bos taurus, UniProt P32871); assay: Inhibition of recombinant PtdIns-3-kinase, [32P]-ATP dependent phosphorylation of PtdIns; assay type: biochemical, bovine; settings: recombinant enzyme; read-out: IC50, PtdIns-3-kinase p110α/p85α
T1 construct: purchased Upstate (Charlottesville, Va.)
T1 sequence (P32871 whole entry): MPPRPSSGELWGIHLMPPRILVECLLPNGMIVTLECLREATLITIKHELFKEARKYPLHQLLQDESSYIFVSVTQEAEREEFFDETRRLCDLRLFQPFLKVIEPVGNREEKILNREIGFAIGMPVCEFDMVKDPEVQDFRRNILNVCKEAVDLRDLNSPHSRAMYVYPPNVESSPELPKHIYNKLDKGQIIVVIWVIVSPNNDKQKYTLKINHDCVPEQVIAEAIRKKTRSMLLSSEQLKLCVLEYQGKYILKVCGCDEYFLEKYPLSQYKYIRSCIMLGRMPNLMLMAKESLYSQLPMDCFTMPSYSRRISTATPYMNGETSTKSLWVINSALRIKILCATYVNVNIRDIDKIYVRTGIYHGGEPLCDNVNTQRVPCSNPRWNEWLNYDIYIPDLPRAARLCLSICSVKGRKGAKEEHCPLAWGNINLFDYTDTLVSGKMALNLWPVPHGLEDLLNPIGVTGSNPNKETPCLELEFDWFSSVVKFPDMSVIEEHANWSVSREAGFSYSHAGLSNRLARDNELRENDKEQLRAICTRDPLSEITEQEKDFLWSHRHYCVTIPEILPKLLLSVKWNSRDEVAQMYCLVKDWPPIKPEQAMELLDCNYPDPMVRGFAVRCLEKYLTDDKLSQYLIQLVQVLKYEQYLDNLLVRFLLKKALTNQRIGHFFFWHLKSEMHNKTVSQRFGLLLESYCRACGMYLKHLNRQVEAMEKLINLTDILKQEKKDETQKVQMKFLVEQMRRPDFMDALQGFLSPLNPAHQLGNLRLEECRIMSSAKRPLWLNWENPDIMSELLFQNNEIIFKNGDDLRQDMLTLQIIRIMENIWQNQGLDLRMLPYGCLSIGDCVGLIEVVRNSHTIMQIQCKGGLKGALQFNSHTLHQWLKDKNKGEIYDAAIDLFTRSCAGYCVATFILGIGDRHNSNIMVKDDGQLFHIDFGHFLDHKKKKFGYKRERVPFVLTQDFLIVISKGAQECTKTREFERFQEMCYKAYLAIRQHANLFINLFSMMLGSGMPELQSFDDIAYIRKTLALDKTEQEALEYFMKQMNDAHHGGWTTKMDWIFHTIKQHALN
T1 sequence (P23727 2-724 partner): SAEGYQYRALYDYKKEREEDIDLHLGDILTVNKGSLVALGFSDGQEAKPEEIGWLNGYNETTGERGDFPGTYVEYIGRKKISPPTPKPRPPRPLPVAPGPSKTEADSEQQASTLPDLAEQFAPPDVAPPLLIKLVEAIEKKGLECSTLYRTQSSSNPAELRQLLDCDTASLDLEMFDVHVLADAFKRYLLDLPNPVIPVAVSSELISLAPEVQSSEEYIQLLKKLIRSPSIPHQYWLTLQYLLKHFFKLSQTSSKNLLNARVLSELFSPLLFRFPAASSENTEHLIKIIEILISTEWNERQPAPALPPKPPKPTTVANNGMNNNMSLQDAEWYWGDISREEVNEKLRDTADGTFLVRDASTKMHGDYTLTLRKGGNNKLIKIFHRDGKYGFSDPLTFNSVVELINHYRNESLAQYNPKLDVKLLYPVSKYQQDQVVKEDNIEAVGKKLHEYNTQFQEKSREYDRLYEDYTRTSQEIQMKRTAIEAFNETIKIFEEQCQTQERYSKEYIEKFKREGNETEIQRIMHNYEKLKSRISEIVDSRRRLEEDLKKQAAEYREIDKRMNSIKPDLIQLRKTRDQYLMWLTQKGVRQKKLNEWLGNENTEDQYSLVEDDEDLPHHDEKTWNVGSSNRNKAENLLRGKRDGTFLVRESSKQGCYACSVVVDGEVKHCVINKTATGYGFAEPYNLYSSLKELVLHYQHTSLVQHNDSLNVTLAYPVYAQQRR
Description: (§3) Materials and Methods. Compounds. […] Rabbit purified anti-phosphoSer473-Akt antibody, anti-Akt antibody, antiphospho Tyr1086-EGF-receptor antibody and anti-EGFR antibody were obtained from Cell Signaling Technology (Beverly, Mass.). Human recombinant p110α/p85α, p110β/p85α, p120 (and p110*/p85α PtdIns-3-kinases were obtained from Upstate (Charlottesville, Va.). Metformin hydrochloride was obtained from Spectrum Chemical (Gardena, Calif.), pioglitazone hydrochloride and recombinant human insulin from Sigma Chemical (St. Louis).
as §2

[5] = target: T2, p120γ (Homo sapiens, UniProt P48736); assay: as above; assay type: biochemical; settings: recombinant enzyme
T2 construct: purchased Upstate (Charlottesville, Va.)
T2 sequence (P48736 whole entry): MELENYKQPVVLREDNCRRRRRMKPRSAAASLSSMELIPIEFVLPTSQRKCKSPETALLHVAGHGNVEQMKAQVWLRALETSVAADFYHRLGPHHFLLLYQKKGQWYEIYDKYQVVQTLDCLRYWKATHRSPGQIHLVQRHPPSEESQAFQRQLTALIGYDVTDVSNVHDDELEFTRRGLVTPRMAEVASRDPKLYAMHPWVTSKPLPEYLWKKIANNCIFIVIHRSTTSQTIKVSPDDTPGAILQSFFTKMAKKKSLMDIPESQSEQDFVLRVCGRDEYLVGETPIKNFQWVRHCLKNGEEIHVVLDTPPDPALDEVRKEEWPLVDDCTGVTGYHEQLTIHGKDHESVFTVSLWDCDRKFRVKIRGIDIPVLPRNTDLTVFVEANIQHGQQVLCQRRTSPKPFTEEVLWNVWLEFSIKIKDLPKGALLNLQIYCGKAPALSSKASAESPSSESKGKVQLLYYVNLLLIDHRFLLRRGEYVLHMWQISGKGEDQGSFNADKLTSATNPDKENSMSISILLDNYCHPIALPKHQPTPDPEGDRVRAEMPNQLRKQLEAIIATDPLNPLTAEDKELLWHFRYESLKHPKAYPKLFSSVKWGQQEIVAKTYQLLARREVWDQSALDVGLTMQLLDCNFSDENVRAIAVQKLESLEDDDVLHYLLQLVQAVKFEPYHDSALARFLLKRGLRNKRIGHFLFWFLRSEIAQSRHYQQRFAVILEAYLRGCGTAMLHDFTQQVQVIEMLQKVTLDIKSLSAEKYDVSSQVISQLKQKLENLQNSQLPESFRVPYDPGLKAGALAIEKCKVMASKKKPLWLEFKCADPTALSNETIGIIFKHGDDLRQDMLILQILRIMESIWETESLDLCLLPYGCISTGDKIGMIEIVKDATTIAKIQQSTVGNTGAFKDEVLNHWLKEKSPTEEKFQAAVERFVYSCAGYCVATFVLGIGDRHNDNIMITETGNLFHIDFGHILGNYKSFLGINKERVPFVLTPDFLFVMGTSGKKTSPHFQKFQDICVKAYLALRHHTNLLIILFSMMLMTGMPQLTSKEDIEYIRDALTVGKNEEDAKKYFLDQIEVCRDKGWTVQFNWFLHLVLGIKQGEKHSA
Description: as §3, §2

[6] = target: T3, p110β/p85α (Homo sapiens, UniProt P42338); assay: as above; assay type: biochemical; settings: recombinant enzyme
T3 construct: purchased Upstate (Charlottesville, Va.)
Description: as §3, §2

[7] = target: T4, p110δ/p85α (Homo sapiens, UniProt O00329); assay: as above; assay type: biochemical; settings: recombinant enzyme
T4 construct: purchased Upstate (Charlottesville, Va.)
T4 sequence (O00329 whole entry): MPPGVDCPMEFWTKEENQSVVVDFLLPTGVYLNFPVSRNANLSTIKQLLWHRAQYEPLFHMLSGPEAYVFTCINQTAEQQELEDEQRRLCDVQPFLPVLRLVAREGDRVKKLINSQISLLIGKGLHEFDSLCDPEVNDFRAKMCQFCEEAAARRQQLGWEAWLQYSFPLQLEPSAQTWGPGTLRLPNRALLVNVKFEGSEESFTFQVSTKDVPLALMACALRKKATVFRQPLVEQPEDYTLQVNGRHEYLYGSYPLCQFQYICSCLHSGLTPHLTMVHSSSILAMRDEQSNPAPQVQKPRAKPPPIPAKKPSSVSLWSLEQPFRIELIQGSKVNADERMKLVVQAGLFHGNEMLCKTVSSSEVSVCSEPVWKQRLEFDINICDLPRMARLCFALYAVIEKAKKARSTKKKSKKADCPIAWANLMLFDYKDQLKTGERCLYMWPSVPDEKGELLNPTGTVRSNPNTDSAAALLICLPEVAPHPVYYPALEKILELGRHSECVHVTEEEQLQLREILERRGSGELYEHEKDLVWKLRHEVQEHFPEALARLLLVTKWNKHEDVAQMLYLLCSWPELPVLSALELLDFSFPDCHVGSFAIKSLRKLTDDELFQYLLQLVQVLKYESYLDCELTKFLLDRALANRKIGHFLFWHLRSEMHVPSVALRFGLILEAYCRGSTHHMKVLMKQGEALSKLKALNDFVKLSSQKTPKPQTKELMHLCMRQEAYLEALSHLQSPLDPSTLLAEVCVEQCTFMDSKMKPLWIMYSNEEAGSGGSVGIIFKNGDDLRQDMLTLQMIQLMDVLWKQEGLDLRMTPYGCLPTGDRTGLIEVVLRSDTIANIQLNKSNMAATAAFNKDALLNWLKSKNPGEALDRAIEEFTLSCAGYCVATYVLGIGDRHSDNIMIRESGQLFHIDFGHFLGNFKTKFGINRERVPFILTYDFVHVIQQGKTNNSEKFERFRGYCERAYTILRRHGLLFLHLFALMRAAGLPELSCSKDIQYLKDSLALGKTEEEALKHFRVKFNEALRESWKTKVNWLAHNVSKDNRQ
T4 sequence (P27986 whole entry partner): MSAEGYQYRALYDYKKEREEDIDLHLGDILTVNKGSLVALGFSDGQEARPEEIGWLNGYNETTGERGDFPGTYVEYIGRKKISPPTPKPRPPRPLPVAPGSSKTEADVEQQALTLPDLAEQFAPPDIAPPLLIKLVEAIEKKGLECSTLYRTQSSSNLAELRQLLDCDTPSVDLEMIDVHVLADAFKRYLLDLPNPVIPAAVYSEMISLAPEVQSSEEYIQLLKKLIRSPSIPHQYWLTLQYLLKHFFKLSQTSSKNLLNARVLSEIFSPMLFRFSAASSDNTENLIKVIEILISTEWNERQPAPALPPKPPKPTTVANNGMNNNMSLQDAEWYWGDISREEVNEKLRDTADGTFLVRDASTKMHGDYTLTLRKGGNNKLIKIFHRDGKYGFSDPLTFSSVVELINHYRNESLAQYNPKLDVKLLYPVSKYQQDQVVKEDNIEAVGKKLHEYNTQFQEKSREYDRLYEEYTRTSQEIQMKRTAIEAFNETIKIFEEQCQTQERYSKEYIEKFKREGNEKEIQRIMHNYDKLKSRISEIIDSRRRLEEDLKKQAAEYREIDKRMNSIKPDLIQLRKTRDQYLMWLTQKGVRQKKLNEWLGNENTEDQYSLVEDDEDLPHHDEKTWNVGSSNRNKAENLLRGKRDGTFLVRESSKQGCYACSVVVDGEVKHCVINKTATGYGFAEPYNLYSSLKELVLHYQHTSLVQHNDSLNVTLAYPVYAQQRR
Description: as §3, §2

[8] = test system: HT-29 colon; assay: Antitumor activity of cytotoxic drugs alone or combined with PX-866, HT-29 colon (Table 2); assay type: in vivo; settings: for Alone Growth delay days / Alone TGI % / Alone log cell kill: size 150 mm^3
[9] = test system: A-549 lung; assay: Antitumor activity of cytotoxic drugs alone or combined with PX-866, A-549 lung (Table 2); assay type: in vivo
[10] = test system: A-549 cells; assay type: cell-based, human; settings: PX-866 at concentrations up to 100 nM
Procedure: as §1

[11] = test system: HT-29 colon; assay: Antitumor activity of wortmannin analogs, HT-29 colon tumor (Table 1); assay type: in vivo; settings: initial tumor vol 170 mm^3, 12 mg/kg/day ip Q1D × 9
[12] = Toxicity of long term PX-866 administration, scid mice; assay type: in vivo; settings: for ALT: 24 hr after last dose, mean of 4 mice ± SE; for gain in body weight as % of the control weight gain: over the 4 weeks of treatment
Procedure: Toxicity Studies. […] The mice were killed 24 hr after the last dose and changes in body weight, blood lymphocyte, neutrophil, red blood cell, platelet counts, serum glucose, aspartate amino transferase (AST), and amino alanine transferase (ALT) were measured.
Values are the mean of 4 mice per group±SE.

[13] = test system: HT-29 xenograft phosphor-Akt; assay: Inhibition of HT-29 xenograft phospho-Akt by wortmannin analogs (pharmacodynamics); assay type: in vivo
Procedure: The pharmacodynamics of various wortmannin analogs were tested. […] PX-866 was administered intraperitoneal, intravenously and orally.

[14] = Nonfasting glucose levels after long term PX-866; assay type: in vivo, mice; settings: PX-866 9 mg/kg iv every other day for 15 doses; ±S.E., n=4
[15] = Glucose tolerance studies; settings: mean ± SE of 4 mice
Procedure: Glucose Tolerance Studies. Female C5781/6 mice were fasted overnight and administered a single dose of D(+) glucose (1 mg/kg) as a 0.1 g/ml solution po. […] Human recombinant insulin was administered at 0.075:g/kg ip (26) at the same time as glucose administration.
Values are the mean±SE of 4 mice per group.

[16] = test system: tumor phospho-EGFR (A-549 tumor xenografts); assay type: in vivo, scid mice
[17] = PX-866 iv 10 mg/kg Q2D × 3 combined with cisplatin ip 2.5 mg/kg Q2D × 3
[18] = PX-866 po 2.5 mg/kg Q2D × 3 combined with cisplatin ip 2.5 mg/kg Q2D × 3
[19] = PX-866 ip 6 mg/kg QD × 5 combined with cisplatin ip 1 mg/kg QD × 5
[20] = size 300 mm^3, PX-866 ip 6 mg/kg QD × 5
[21] = PX-866 1.5 mg/kg po every other day for 14 doses, mean ± SE
[22] = PX-866 3 mg/kg po every other day for 14 doses, mean ± SE
[23] = PX-866 10 mg/kg iv every other day for 14 doses, mean ± SE

## C=CCN(/C=C1/C(=O)O[C@H](COC)[C@@]2(C)C1=C(O)C(=O)C1=C2[C@H](OC(C)=O)C[C@]2(C)C(=O)CC[C@@H]12)CC=C [PX-866]
[1]
  antitumor effect with gefitinib: increased the antitumor effect of gefitinib
[2]
  antitumor activity with bevacizumab: significantly increased the antitumor activity of bevacizumab
[3]
  IC50: 25 nM
[4]
  IC50: 5.5 nM
[5]
  IC50: 9 nM
[6]
  IC50: > 300 nM
[7]
  IC50: 2.7 nM
[8]; [17]
  Combined Growth delay days: 6 days
  Combined TGI %: 56%
  Combined log cell kill: 0.5
[8]; [18]
  Combined Growth delay days: 8 days
  Combined TGI %: 63%
  Combined log cell kill: 0.7
[8]; PX-866 iv 10 mg/kg Q2D × 3
  Alone Growth delay days: 0 days
  Alone TGI %: 11%
  Alone log cell kill: 0.3
[8]; PX-866 po 2.5 mg/kg Q2D × 3
  Alone Growth delay days: 1 days
  Alone TGI %: 29%
  Alone log cell kill: 0.1
[9]; [19]
  Combined Growth delay days: 10 days
  Combined TGI %: 58%
  Combined log cell kill: 1.0
[9]; [20]
  Alone Growth delay days: 3 days
  Alone TGI %: 27%
  Alone log cell kill: 0.30
[10]
  enhancement of the growth inhibition by gefitinib: did not enhance
[11]
  Growth Delay: 6 days
  Log10 cell kill: 0.4
[11]; day 16
  T/C % (optimal test/control): 39 (16) %
[12]; PX-866 1.5 mg/kg po every other day for 14 doses
  ALT: 65.6 ± 27.5 U/l
[12]; [21]
  AST: 140.5 ± 35.2 U/l
  Hb: 14.6 ± 0.3 g/dL
  Weight change: 3.9 ± 0.6 g
[12]; PX-866 3 mg/kg po every other day for 14 doses
  ALT: 47.6 ± 16.8 U/l
[12]; [22]
  AST: 152.0 ± 47.2 U/l
  Hb: 14.7 ± 0.4 g/dL
  LY: 5.2 ± 3.9 K/μl
  MO: 9.2 ± 3.6 K/μl
  Plt: 1665 ± 227 K/μl
[12]; PX-866 3 mg/kg po
  gain in body weight as % of the control weight gain: 28%
[12]; PX-866 10 mg/kg iv every other day for 14 doses
  ALT: 35.5 ± 11.7 U/l
[12]; [23]
  AST: 105.2 ± 19.2 U/l
  Hb: 14.4 ± 0.1 g/dL
  LY: 1.8 ± 0.5 K/μl
  MO: 1.1 ± 0.2 K/μl
  Ne: 14.0 ± 2.7 K/μl
  Plt: 1390 ± 43 K/μl
  WBC: 14.6 ± 4.2 K/μl
  glucose: 76.2 ± 3.6 mg/dL
[12]; PX-866 10 mg/kg iv
  gain in body weight as % of the control weight gain: 83%
[12]; scid mice, long term PX-866
  time for changes in body weight, plasma glucose and blood cell counts to return to normal after treatment stopped: ≤ 9 days
[13]; dose dependency, PX-866, PX-867 and PX-881 compared (FIG. 1A)
  inhibition of HT-29 xenograft phosphor-Akt: greatest inhibitory activity
[13]; oral compared with intraperitoneal and intravenous (FIG. 1B)
  inhibition of HT-29 xenograft phosphor-Akt over time by route: more consistent inhibition over a longer period of time
[14]
  nonfasting glucose levels: 269.4 ± 27.8 mg/dL
[15]; PX-866 3 mg/kg po QOD × 20, glucose 24 hours after the last dose
  plasma glucose AUC0-180 min: 520 ± 14^a mg · min · ml^−1
[15]; PX-866 10 mg/kg po single dose, glucose 4 hours later, no other drug
  plasma glucose AUC0-180 min: 533 ± 17^a mg · min · ml^−1
[16]; PX-866 3 mg/kg po every other day for 5 days
  effect upon tumor phospho-EGFR: no significant effect
[16]; PX-866 12 mg/kg iv every other day for 5 days
  effect upon tumor phospho-EGFR: no significant effect
[16]; combination of gefitinib and PX-866
  effect upon tumor phospho-EGFR: inhibited both
